From patent US8992886B2, “Cyclic peptide analogues for non-invasive imaging of pancreatic beta-cells” (Board of Regents, the University of Texas System, priority 2009, dated 2015)
Bridge positions count the residues as written; N and C are the ends. Square brackets hold non-standard residues; d marks the D form. Peptide text beside a SMILES is read from it. * marks the point of attachment. X1 = O=C(O)CN1CCN(CC(=O)O)CCN(CC(=O)NCCN2C(=O)CC(*)C2=O)CCN(CC(=O)O)CC1; Ahx = NCCCCCC(=O)O

Assays:
[1] = target: GLP-1R (Homo sapiens, UniProt P43220); test: cAMP accumulation in HEK293 cells stably expressing GLP-1R-GFP; format: cell-based; set-up: GFP; expressed in transfected cells; host or cells: HEK293
Excerpt: In all cases, reactions were stopped with 1.2 M trichloroacetic acid and cAMP was isolated by the two column chromatographic method.

[2] = target: T1, GLP-1R in pancreas (Mus musculus, UniProt O35659); test: Dynamic PET/CT imaging of ^64Cu-labeled peptides in normal mice; details: ^64Cu labeled, normal mice, dynamic PET-CT
T1 sequence (O35659 22-463): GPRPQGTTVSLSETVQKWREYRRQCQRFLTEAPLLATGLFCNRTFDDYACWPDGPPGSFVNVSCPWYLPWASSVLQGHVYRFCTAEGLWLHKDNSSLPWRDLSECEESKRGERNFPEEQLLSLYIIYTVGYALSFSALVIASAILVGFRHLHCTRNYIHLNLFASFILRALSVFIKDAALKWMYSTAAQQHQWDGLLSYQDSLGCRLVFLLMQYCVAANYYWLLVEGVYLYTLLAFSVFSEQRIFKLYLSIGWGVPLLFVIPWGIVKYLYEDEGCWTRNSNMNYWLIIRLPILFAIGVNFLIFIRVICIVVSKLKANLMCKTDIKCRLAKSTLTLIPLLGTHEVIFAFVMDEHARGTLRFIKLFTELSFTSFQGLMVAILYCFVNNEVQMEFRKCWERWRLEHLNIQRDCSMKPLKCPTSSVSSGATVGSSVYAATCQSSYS
Method: Dynamic PET/CT scans were performed on a Siemens Inveon PET-CT multimodality system using normal male BABL/c mice (n=3 per peptide). Post-PET biodistribution was performed to verify the imaging findings.
In addition, D-Ala^8 was also introduced to prevent the degradation by DPP-IV.
FIG. 9 are graphs that show a comparison of contrast in pancreatic, liver and kidney microPET scans. […] Quantitative analysis based on microPET/CT 0-60 min dynamic scans, animal model: Normal BABL/c mice at 6-8 wks.

GLP-1R, sequence (P43220 24-463): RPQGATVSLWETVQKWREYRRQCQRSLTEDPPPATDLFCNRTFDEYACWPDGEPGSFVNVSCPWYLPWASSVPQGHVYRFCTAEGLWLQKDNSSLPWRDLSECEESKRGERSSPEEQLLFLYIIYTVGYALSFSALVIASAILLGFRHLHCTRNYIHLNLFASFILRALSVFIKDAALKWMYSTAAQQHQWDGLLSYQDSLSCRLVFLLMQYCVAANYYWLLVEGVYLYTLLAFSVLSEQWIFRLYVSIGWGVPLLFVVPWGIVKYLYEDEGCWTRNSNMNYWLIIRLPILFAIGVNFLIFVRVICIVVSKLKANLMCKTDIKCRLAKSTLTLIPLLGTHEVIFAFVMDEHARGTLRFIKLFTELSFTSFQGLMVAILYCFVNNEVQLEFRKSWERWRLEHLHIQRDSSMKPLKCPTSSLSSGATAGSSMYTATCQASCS

| SMILES | EC50 [1] [nM] | pancreatic retention [2] [min] |
| --- | --- | --- |
| CC[C@H](C)[C@H](NC(=O)[C@H](Cc1ccccc1)NC(=O)[C@H](CCC(=O)O)NC(=O)[C@H](CCCCN)NC(=O)[C@H](C)NC(=O)[C@H](C)NC(=O)[C@H](CCC(N)=O)NC(=O)CNC(=O)[C@H](CCC(=O)O)NC(=O)[C@@H]1CCCCNC(=O)CC[C@H](NC(=O)[C@H](CC(=O)O)NC(=O)[C@H](CO)NC(=O)[C@@H](NC(=O)[C@H](Cc2ccccc2)NC(=O)[C@@H](NC(=O)CNC(=O)[C@H](CCC(=O)O)NC(=O)[C@@H](C)NC(=O)[C@@H](N)Cc2c[nH]cn2)[C@@H](C)O)[C@@H](C)O)C(=O)N[C@@H](CO)C(=O)N[C@@H](CO)C(=O)N[C@@H](Cc2ccc(O)cc2)C(=O)N1)C(=O)N[C@H]1CCC(=O)NCCCC[C@@H](C(=O)NCC(=O)N[C@@H](CCCNC(=N)N)C(=O)NCCCCCC(=O)N[C@@H](CSC2CC(=O)N(CCNC(=O)CN3CCN(CC(=O)O)CCN(CC(=O)O)CCN(CC(=O)O)CC3)C2=O)C(N)=O)NC(=O)[C@H](C(C)C)NC(=O)[C@H](CC(C)C)NC(=O)[C@H](Cc2c[nH]c3ccccc23)NC1=O (stereo partly drawn) [EM2196, HXEGTFTSDESSYKEGQAAKEFIEWLVKG R, wherein X is D-Ala] (H-H[dA]EGTFTSDESSYKEGQAAKEFIEWLVKGR[Ahx]C(X1)-NH2; lactam 10-14, 24-28) | ~1 | – |
| CC[C@H](C)[C@H](NC(=O)[C@H](Cc1ccccc1)NC(=O)[C@H](CCC(=O)O)NC(=O)[C@H](CCCCN)NC(=O)[C@H](C)NC(=O)[C@H](C)NC(=O)[C@H](CCC(N)=O)NC(=O)[C@@H]1CCCCNC(=O)CC[C@H](NC(=O)[C@H](CO)NC(=O)[C@@H](NC(=O)[C@H](CC(=O)O)NC(=O)[C@H](CO)NC(=O)[C@@H](NC(=O)[C@H](Cc2ccccc2)NC(=O)[C@@H](NC(=O)CNC(=O)[C@H](CCC(=O)O)NC(=O)[C@@H](C)NC(=O)[C@@H](N)Cc2c[nH]cn2)[C@@H](C)O)[C@@H](C)O)C(C)C)C(=O)N[C@@H](Cc2ccc(O)cc2)C(=O)N[C@@H](CC(C)C)C(=O)N[C@@H](CCC(=O)O)C(=O)N1)C(=O)N[C@H]1CCC(=O)NCCCC[C@@H](C(=O)NCC(=O)N[C@@H](CCCNC(=N)N)C(=O)NCCCCCC(=O)N[C@@H](CSC2CC(=O)N(CCNC(=O)CN3CCN(CC(=O)O)CCN(CC(=O)O)CCN(CC(=O)O)CC3)C2=O)C(N)=O)NC(=O)[C@H](C(C)C)NC(=O)[C@H](CC(C)C)NC(=O)[C@H](Cc2c[nH]c3ccccc23)NC1=O (stereo partly drawn) [EM2198, HXEGTFTSDVSEYLEKQAAKEFIEWLVKGR, wherein X is D-Ala] | ~1 | > 30 |
